# Calls of active or inactive are those of the source. The calls are words filed in the database; no cut-off is given here.
# Experiments:
# [1] = Biodistribution in Balb/c mouse xenografted with human U-87 MG cells by measuring ratio of boron concentration in tumor to muscle at 0.04 mmol,iv administrated for 1 hr by ICP-MS analysis; format: ADME, organism-based; settings: in vivo
# [2] = Biodistribution in Balb/c mouse xenografted with human U-87 MG cells by measuring ratio of boron concentration in tumor to brain at 0.04 mmol,iv administrated for 1 hr by ICP-MS analysis; format: ADME, organism-based; settings: in vivo
# [3] = Biodistribution in Balb/c mouse xenografted with human U-87 MG cells by measuring ratio of boron concentration in tumor to kidney at 0.04 mmol,iv administrated for 1 hr by ICP-MS analysis; format: ADME, organism-based; settings: in vivo
# [4] = Biodistribution in Balb/c mouse xenografted with human U-87 MG cells by measuring ratio of boron concentration in tumor to liver at 0.04 mmol,iv administrated for 1 hr by ICP-MS analysis; format: ADME, organism-based; settings: in vivo
# [5] = tested on: U-87 MG; experiment: Cytotoxicity against human U-87 MG cells at 10 to 400 uM incubated for 24 hrs by CCK-8 assay; format: functional, cell-based; settings: U-87MG ATCC, dose 10-400 µM
compound,measurement,setting,value
N=C(N)NCCC[C@@H]1NC(=O)[C@H](CCCCN)NC(=O)[C@@H](Cc2ccc(B(O)O)cc2)NC(=O)[C@H](CC(=O)O)NC(=O)CNC1=O,Ratio,[1],2.41
same,Ratio,[2],13.4
same,Ratio,[3],0.43
same,Ratio,[4],2.5
same,Activity,[5],inactive

# From ChEMBL document CHEMBL5344471, “64Cu-Labeled Boron-Containing Cyclic RGD Peptides for BNCT and PET Imaging” (ACS Med Chem Lett, 2024)
